Where a name gives a salt, the structure may show the parent alone.
Key:
[1] = target: T1, human-type OT7T022 (Homo sapiens, UniProt Q9GZQ6); experiment: Binding inhibiting activity using human-type OT7T022-expressing CHO cell; details: 125I-labeled Y-RFRP-3 100 pM, membrane fraction, room temperature 1.5 hours; read-out: IC50 value (binding inhibiting rate)
T1 construct: expressed in transfected cells; host or cells: CHO cells (membrane fraction)
Description: Assessment of Binding Inhibiting Activity of Test Compound Using Human-Type OT7T022-Expressing CHO Cell
Twenty μm of a peptide (Y-RFRP-3) (sequence: Tyr-Val-Pro-Asn-Leu-Pro-Gln-Arg-Phe-amide) (0.1 mM) in which a Tyr residue had been added to a N-terminus of hRFRP-3-8 (sequence: Val-Pro-Asn-Leu-Pro-Gln-Arg-Phe-amide) having binding inhibiting activity equivalent to that of endogenous human-type RFRP-3 (hRFRP-3-28) for human-type OT7T022-expressing CHO cell and 10 μl of distilled water were mixed, 20 μl of a lactoperoxidase solution (Sigma, prepared using 0.1 M HEPES-NaOH, pH 7.0 in 10 μg/mL), 10 μl of Iodine-125 (Amersham, IMS-30, 74 MBq), and 20 μl of 0.005% hydrogen peroxide (Wako Pure Chemical Industries, Ltd.) were successively mixed therein, the mixture was allowed to stand at room temperature for 10 minutes, 600 μl of 0.1% TFA-water was added, this was separated by reverse phase HPLC, a peak of the labeled form was collected, an equivalent amount of a buffer for a binding test (50 mM TrisHCl (pH 7.5), 0.1% BSA, 5 mM EDTA, 0.5 mM PMSF, 20 μg/mL leupeptin, 0.1 μg/mL pepstatin A, […]) was added, and this was immediately stored on ice. A part thereof was 1/100 diluted, radioactivity was measured with a γ-counter, and the remaining authentic product was distributed, which was stored at −30° C.
To a 96-well microplate were added 1 μg of a membrane fraction, a compound and Y-RFRP-3 labeled with ^125I, which had been diluted with a reaction buffer (50 mM Tris-HCl, 5 mM EDTA, 0.1% BSA, 0.5 mM PMSF, 20 μg/ml leupeptin, 0.1 μg/ml pepstatin A, 4 μg/ml E-64, 10 mM MgCl2, pH 7.5), to 100 pM to react them at room temperature for 1.5 hours. For measuring non-specific binding, non-labeled Y-RFRP-3 was further added to […]. Then, a membrane fraction was transferred to a unifilter GF/C (Perkin Elmer) by filtering the reaction mixture using a cell harvester (Perkin Elmer), and this was washed with a cooled 50 mM Tris buffer (pH 7.5) five times. The filter was dried, Microsinti (Packard) was added to the filter, and radioactivity was measured with Topcount (Packard).
A binding inhibiting rate (IC50 value) of a test compound is shown in [Table 1].

[2] = target: T1, human-type OT7T022; experiment: Antagonist activity in cAMP production inhibiting test system using human-type OT7T022-expressing CHO cell; format: cell-based; details: agonist human-type RFRP-3-8 20 nM + forskolin 2 μM, intracellular cAMP amount
Description: Test of Antagonist Activity of Compound in Camp Production Inhibiting Test System Using Human-Type OT7T022-Expressing CHO Cell
Antagonist activity of a test compound was measured in an intracellular cAMP production inhibiting test system of a CHO cell expressing human-type OT7T022. In the cAMP production inhibiting test, as an assay buffer, a Hanks' balanced salt solution (Gibco) to which 20 mM HEPES pH 7.4, 0.1% bovine serum albumin, and 0.2 mM 3-isobutyl-1-methylxanthine (Sigma) had been added, was used. A sample compound was adjusted with an assay buffer so that the final concentration became 10^−5M, 10^−6M, 10^−7M, 10^−8M, or 10^−10M. An agonist: human-type RFRP-3-8 (Val-Pro-Asn-Leu-Pro-Gln-Arg-Phe-amide) was diluted with an assay buffer obtained by adding 4 μM (final concentration 2 μM) forscoline to 40 nM (final concentration 20 nM). A human-type OT7T022-expressing CHO cell was passaged on a 96-well plate at 4×10^4/well, and cultured at 37° C., 5% CO2 and 95% air for one day. The plate which had been cultured for one day was washed with an assay buffer (150 μl) two times and, after 30 minutes, this was cultured for 30 minutes at 37° C. and 100% air. […] An intracellular cAMP amount was measured according to a protocol of the present kit using cAMP-Screen™ system (ABI). […]

[3] = target: T2, rat-type OT7T022 (Rattus norvegicus, UniProt Q9EP86); experiment: Binding inhibiting activity using rat-type OT7T022-expressing CHO cell membrane fraction; details: iodine-labeled Y-RFRP-3 100 pM, membrane fraction 0.75 μg/well
T2 construct: expressed in transfected cells; host or cells: CHO cells (membrane fraction)
T2 sequence (Q9EP86 whole entry): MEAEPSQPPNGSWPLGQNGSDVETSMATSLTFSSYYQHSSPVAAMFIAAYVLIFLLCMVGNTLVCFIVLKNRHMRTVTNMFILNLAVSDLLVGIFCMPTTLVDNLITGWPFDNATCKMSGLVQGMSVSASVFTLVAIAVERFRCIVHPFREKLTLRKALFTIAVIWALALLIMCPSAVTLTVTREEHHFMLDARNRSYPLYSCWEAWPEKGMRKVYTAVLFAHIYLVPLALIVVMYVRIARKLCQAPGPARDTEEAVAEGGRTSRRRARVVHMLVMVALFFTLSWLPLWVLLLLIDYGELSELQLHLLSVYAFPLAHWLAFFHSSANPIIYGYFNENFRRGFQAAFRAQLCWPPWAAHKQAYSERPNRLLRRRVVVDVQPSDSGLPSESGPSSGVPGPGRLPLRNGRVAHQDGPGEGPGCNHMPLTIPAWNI
Description: Assessment of Binding Inhibiting Activity of Test Compound Using Rat-Type OT7T022-Expressing CHO Cell
A flask in which a rat-type OT7T022-expressing CHO cell had been cultured was washed with 5 mM EDTA/PBS, cells were peeled with 5 mM EDTA/PBS, and cells were recovered by centrifugation, suspended in 25 mL of a buffer for preparing a membrane fraction (50 mM Tris-HCl, pH 7.5, 5 mM EDTA, 0.5 mM PMSF (manufactured by Wako Pure Chemical Industries, Ltd.), […] (manufactured by Peptide Laboratory), 0.1 μg/mL pepstatin A (manufactured by Peptide Laboratory), 4 μg/mL E-64 (manufactured by Peptide Laboratory)), and homogenized on an ice using Polytron (12,000 rpm, 15 seconds×3 times). This was centrifuged in a high speed cooling centrifuge at 4° C. and 1,000 g for 10 minutes, and the supernatant was recovered. 25 mL of a buffer for preparing a membrane fraction was added to precipitates, and the supernatant was recovered by the same procedure. These supernatants were combined, subjected to a cell strainer, dispensed into tubes for a supercentrifuge, and centrifuged at 4° C. and 100,000 g for 1 hour. The pellet was suspended in a small amount of a buffer for preparing a membrane fraction, this was suspended using a Teflon (registered trade mark) homogenizer, a protein amount was measured using a part, and the remaining was dispensed, and stored at −80° C.
Using an assay buffer (50 mM Tris-HCl, pH 7.5, 5 mM EDTA, 0.5 mM PMSF, 20 μg/mL leupeptin, 0.1 μg/mL pepstatin A, 4 μg/mL E-64, 0.1% bovine serum albumin, 10 mM MgCl2), a membrane fraction of a rat-type OT7T022-expressing CHO cell was diluted to the final concentration of 0.75 μg/well, and iodine-labeled Y-RFRP-3 was diluted to the final concentration of 100 pM. Regarding a sample compound, a 10^−2M or 10^−3M stock solution was diluted with an assay buffer so that the final concentration became 10^−5M, 10^−6M, 10^−7M, 10^−8M, 10^−9M, 10^−10M or 10^−11M. For non-specific binding, hRFRP-3-8 having the final concentration of 10^−5M was prepared. Using a polypropylene 96-well plate, a prepared sample solution, a non-specific binding solution, and 50 μl of an assay buffer for total binding were dispensed, 25 μl of an iodine-labeled form diluent was added, the mixture was stirred, 25 μl of a rat-type OT7T022-expressing CHO cell membrane fraction solution was dispensed, and this was stirred, and incubated at room temperature for 1.5 hours. This was transferred to a unifilter (Perkin Elmer) pre-wetted with a washing buffer (50 mM Tris-HCl, pH 7.5) using a harvester for a 96-well plate (Packard), and this was washed with a washing buffer six times, and sufficiently dried. 50 μl of Microscinti O (Packard) was dispensed, radioactivity was measured with Top Count (Packard), and data were analyzed in a triplicate manner. Binding inhibiting activity (IC50 value) of a test compound for rat-type OT7T022 is shown in [Table 3].

Measured: IC50

T1 sequence (Q9GZQ6 whole entry): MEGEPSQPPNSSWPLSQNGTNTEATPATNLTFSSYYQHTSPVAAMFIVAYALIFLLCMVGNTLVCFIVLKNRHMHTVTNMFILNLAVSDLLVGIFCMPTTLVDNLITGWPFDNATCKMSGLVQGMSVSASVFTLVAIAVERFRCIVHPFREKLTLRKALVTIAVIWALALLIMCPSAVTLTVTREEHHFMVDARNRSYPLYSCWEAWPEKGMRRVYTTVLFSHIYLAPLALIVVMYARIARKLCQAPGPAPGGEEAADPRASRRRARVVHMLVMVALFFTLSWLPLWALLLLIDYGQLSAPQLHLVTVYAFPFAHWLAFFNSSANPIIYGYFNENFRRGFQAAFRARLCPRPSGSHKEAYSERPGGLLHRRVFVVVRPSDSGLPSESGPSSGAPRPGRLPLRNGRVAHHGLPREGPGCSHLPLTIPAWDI

COc1c(OCCCNCCCc2ccccc2)cccc1[C@H]1O[C@H](CC(=O)NCc2ccccc2F)C(=O)N(CC(C)(C)C)c2ccc(Cl)cc21 (relative stereo) [Example 3, 2-(3,5-trans-7-Chloro-1-(2,2-dimethylpropyl)-5-{2-methoxy-3-[3-(3-phenylpropylamino)propoxy]phenyl}-2-oxo-1,2,3,5-tetrahydro-4,1-benzoxazepin-3-yl)-N-(2-fluorobenzyl)acetamide hydrochloride]
< 1000 nM: all assays above

— patent US20090239839A1, “RECEPTOR ANTAGONIST” (TAKEDA PHARMACEUTICAL COMPANY LIMITED, priority 2003, published 2009)
